One may read the IC50 as the concentration that gives 50% inhibition. A word on the EC50: it is the concentration giving half of the maximal effect. A higher EC50 goes with weaker potency. In general, melting point refers to the temperature, or range, at which the solid turns liquid.

Read-outs that look alike come from different tables or passages of the source.

The text below walks through data of patent US20230202989A1, “COMPOUNDS” (JANSSEN PHARMACEUTICA NV, priority 2020, published 2023).

Data set [1] concerns IL-1β. In words: PBMC assay: inhibition of IL-1β release after LPS stimulation (MSD). Conditions: PBMC, human PBMCs, 100 ng/ml LPS for 6 hrs, MSD, 96 well plates, read-out: IL1β IC50. It is filed as cell-based. The gist of the method: (§1)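 Cryopreserved human PBMCs (7.5×10^4/well) in RPMI/10% FBS were preincubated with serially diluted compound for 30 min at 37 °C, then stimulated with 100 ng/ml LPS for 6 h. Supernatant IL-1β and TNF measured by MSD. IC50 derived for IL-1β, EC50 for TNF.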

Data set [2] relates to TNF. In words: PBMC assay: TNF cytokine levels after LPS stimulation (MSD). It is filed as cell-based. As to conditions: PBMC, human PBMCs, 100 ng/ml LPS for 6 hrs. The gist of the method:
as §1

As for `CC(C)c1nn(CC(=O)Nc2ccc3nncn3n2)c(=O)c2ccc(C(F)(F)F)cc12` [Final Cpd X2, N-([1,2,4]triazolo[4,3-b]pyridazin-6-yl)-2-(4-isopropyl-1-oxo-6-(trifluoromethyl)phthalazin-2(1H)-yl)acetamide], the melting point was found to be 246.08 °C. The IC50 in data set [1] (Homo sapiens, 6 h) was determined as 30 nM. Besides, in data set [2] (Homo sapiens, 6 h), the EC50 was determined as 5580 nM.
As to `CC(C)c1nn(CC(=O)Nc2ccc3nc[nH]c3n2)c(=O)c2ccc(C(F)(F)F)cc12` [Final Cpd X13], the melting point worked out at 295.46 °C. Further, the half-inhibitory concentration (IC50) in data set [1] (Homo sapiens, 6 h) came to 114 nM. Moreover, the EC50 in data set [2] (Homo sapiens, 6 h) was greater than 20000 nM.
On the same counts, the results for `CC(C)c1nn(CC(=O)Nc2ccc3nccn3n2)c(=O)c2ccc(C(F)(F)F)cc12` [Final Cpd X16] are 238.55 °C, 137 nM and greater than 20000 nM.
Consider `CCN1CC[C@@H](O)[C@@H](NC(=O)Cn2nc(C3CC3)c3cc(C(F)(F)F)ccc3c2=O)C1` [Final Cpd X19], for which the melting point was 178.86 °C. In data set [1] (Homo sapiens, 6 h), the IC50 amounted to 161 nM. In data set [2] (Homo sapiens, 6 h), this compound registered an EC50 greater than 20000 nM.
Taken in the same sequence, the figures for `CC(C)c1nn(CC(=O)Nc2ccc3cncn3c2)c(=O)c2ccc(C(F)(F)F)cc12` [Final Cpd X20] were 222.09 °C, 164 nM and 15500 nM.
On the same counts, the results for `CC(C)c1nn(CC(=O)Nc2cc(F)[nH]c(=O)c2)c(=O)c2ccc(C(F)(F)F)cc12` [Final Cpd X22] are 232.18 °C, 170 nM and greater than 20000 nM.
Taken in the same sequence, the figures for `O=C(Cn1nc(C2CC2)c2cc(C(F)(F)F)ccc2c1=O)Nc1ccc2nncn2c1` [Final Cpd X23] were 294.49 °C, 172 nM and greater than 20000 nM.
For the compound `CC(C)c1nn(CC(=O)Nc2ccn3ncnc3c2)c(=O)c2ccc(C(F)(F)F)cc12` [Final Cpd X90], the melting point stood at 215.56 °C. Also, the IC50 in data set [1] (Homo sapiens, 6 h) came to 936 nM. The compound further returned an EC50 in data set [2] (Homo sapiens, 6 h) greater than 20000 nM.
Take `C[C@]1(O)C[C@@H](NC(=O)Cn2nc(C3CC3)c3cc(Cl)ccc3c2=O)C1` [X-1070]: in data set [1] (Homo sapiens, 6 h), the IC50 worked out at 406 nM. This compound registered an EC50 in data set [2] (Homo sapiens, 6 h) greater than 20000 nM.
Taken in the same sequence, the figures for `O=C(Cn1nc(C2CC2)c2cc(Cl)ccc2c1=O)Nc1ccc2nncn2c1` [X-1071] were 398 nM and greater than 20000 nM.
Taken in the same sequence, the figures for `Cn1nc(NC(=O)Cn2nc(C3CC3)c3cc(Cl)ccc3c2=O)ccc1=O` [X-1072] were 1400 nM and greater than 20000 nM.
As to `CCc1ccc2c(=O)n(CC(=O)Nc3ccc4nncn4c3)nc(C(C)C)c2c1` [X-1073], the IC50 in data set [1] (Homo sapiens, 6 h) worked out at 220 nM. Besides, the half-maximal effective concentration (EC50) in data set [2] (Homo sapiens, 6 h) was greater than 20000 nM.
On the same counts, the results for `CC(C)c1nn(CC(=O)Nc2ccc3nncn3c2)c(=O)c2ccc(C3(F)CC3)cc12` [X-1074] are 27 nM and 14800 nM.
For `Cc1nccc(NC(=O)Cn2nc(C(C)C)c3cc(C4(F)CC4)ccc3c2=O)c1F` [X-1075], the IC50 in data set [1] (Homo sapiens, 6 h) was determined as 153 nM. Moreover, in data set [2] (Homo sapiens, 6 h), the concentration for a half-maximal effect (EC50) was greater than 20000 nM.
Taken in the same sequence, the figures for `CC(C)c1nn(CC(=O)Nc2ccc3nncn3c2)c(=O)c2ccc(C(C)(C)F)cc12` [X-1076] were 33 nM and 19700 nM.
For the compound `CC(C)c1nn(CC(=O)Nc2ccc3nccn3c2)c(=O)c2ccc(C(C)(C)F)cc12` [X-1077], the IC50 in data set [1] (Homo sapiens, 6 h) was determined as 144 nM. Besides, the EC50 in data set [2] (Homo sapiens, 6 h) was found to be 16500 nM.
For `CC(C)c1nn(CC(=O)Nc2ccc3nncn3c2)c(=O)c2ccc(C3CCC3)cc12` [X-1078], in data set [1] (Homo sapiens, 6 h), the 50% inhibitory concentration (IC50) worked out at 1310 nM. The compound also showed an EC50 in data set [2] (Homo sapiens, 6 h) greater than 20000 nM.
On the same counts, the results for `CC(O)c1nn(CC(=O)Nc2ccn(C(C)C)n2)c(=O)c2ccc(Br)cc12` (stereo not drawn) [X-1079, 2-(6-bromo-4-(1-hydroxyethyl)-1-oxophthalazin-2(1H)-yl)-N-(1-isopropyl-1H-pyrazol-3-yl)acetamide] are 9790 nM and greater than 20000 nM.
On to `CC(O)c1nn(CC(=O)N[C@H]2C[C@@](C)(O)C2)c(=O)c2ccc(Br)cc12` (stereo partly drawn) [X-1080], for which the IC50 in data set [1] (Homo sapiens, 6 h) was determined as 502 nM. In data set [2] (Homo sapiens, 6 h), this compound returned an EC50 greater than 20000 nM.
On the same counts, the results for `CC(O)c1nn(CC(=O)Nc2ccncn2)c(=O)c2ccc(Br)cc12` (stereo not drawn) [X-1081] are 894 nM and greater than 20000 nM.
As to `CC(O)c1nn(CC(=O)Nc2ccc3nncn3c2)c(=O)c2ccc(Br)cc12` (stereo not drawn) [X-1082], in data set [1] (Homo sapiens, 6 h), the IC50 amounted to 346 nM. This compound returned an EC50 in data set [2] (Homo sapiens, 6 h) greater than 20000 nM.
For `CC(C)c1nn(CC(=O)Nc2cn3cnnc3cn2)c(=O)c2ccc(C(C)(F)F)cc12` [X-1085], the IC50 in data set [1] (Homo sapiens, 6 h) worked out at 143 nM. The compound also registered an EC50 in data set [2] (Homo sapiens, 6 h) greater than 20000 nM.
On the same counts, the results for `CC(C)c1ccc2c(=O)n(CC(=O)Nc3cn4cnnc4cn3)nc(C(C)C)c2c1` [X-1086] are 137 nM and greater than 20000 nM.
Taken in the same sequence, the figures for `CO[C@]1(C)C[C@H](NC(=O)Cn2nc(C(C)C)c3cc(Br)ccc3c2=O)C1` [X-1088] were 196 nM and greater than 20000 nM.
`CC[C@]1(O[Si](C)(C)C(C)(C)C)C[C@@H](NC(=O)Cn2nc(C(C)C)c3cc(Br)ccc3c2=O)C1` [X-1089, 2-(6-bromo-4-isopropyl-1-oxophthalazin-2(1H)-yl)-N-((1r,3s)-3-((tert-butyldimethylsilyl)oxy)-3-ethylcyclobutyl)acetamide]: the IC50 in data set [1] was greater than 20000 nM. Further, the EC50 in data set [2] was greater than 20000 nM.
On to `CC[C@]1(O)C[C@@H](NC(=O)Cn2nc(C(C)C)c3cc(Br)ccc3c2=O)C1` [X-1090, 2-(6-bromo-4-isopropyl-1-oxophthalazin-2(1H)-yl)-N-((1r,3s)-3-ethyl-3-hydroxycyclobutyl)acetamide], for which the IC50 in data set [1] came out at 122 nM. Further, the EC50 in data set [2] is greater than 20000 nM.
